Where two headings read alike, the source gives them in different places.

For assay [1], the target named is T1, human NPR1 (Homo sapiens, UniProt P16066).
T1 construct: host or cells: CHO-K1
T1 sequence (P16066 33-1061): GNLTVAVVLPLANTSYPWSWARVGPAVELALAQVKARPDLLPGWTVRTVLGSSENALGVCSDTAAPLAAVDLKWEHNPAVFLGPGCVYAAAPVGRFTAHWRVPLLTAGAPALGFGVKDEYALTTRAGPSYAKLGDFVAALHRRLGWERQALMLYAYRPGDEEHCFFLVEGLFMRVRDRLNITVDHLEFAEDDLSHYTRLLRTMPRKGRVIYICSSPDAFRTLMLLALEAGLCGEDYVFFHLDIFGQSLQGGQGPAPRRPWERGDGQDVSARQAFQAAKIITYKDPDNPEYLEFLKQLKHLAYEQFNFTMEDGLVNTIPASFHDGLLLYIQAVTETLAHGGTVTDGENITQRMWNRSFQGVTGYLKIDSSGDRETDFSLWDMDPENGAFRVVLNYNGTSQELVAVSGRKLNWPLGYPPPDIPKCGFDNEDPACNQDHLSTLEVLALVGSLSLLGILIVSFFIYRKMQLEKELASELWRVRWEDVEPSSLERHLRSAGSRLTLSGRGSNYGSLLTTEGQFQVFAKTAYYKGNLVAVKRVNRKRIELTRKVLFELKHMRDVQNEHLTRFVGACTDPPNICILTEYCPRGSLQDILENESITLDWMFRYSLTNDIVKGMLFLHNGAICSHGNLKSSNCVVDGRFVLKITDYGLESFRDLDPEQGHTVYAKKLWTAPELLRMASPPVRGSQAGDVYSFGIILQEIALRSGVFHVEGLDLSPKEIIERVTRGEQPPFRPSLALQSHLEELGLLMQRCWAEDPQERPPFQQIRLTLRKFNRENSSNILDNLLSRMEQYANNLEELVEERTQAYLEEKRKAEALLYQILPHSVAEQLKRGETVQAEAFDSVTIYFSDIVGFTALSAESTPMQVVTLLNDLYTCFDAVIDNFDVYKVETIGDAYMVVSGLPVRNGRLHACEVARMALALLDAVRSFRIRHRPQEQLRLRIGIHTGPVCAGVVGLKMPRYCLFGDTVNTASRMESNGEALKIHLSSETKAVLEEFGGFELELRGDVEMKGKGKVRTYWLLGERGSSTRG
In words: Cellular cGMP production assay, human NPR1 expressing CHO-K1 cells (CisBio HTRF). Format: cell-based. The conditions noted are these: for AC50: cGMP production, 30 min at 37° C., 12-point dose-response from 30 μM; for Human NPR1 Amax (% of ANP): maximum cGMP production as percentage of the maximum cGMP produced with ANP. The method, boiled down: (§1)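 12-pt 3-fold dose-response, top 30 μM; buffer PBS + 0.1% BSA + 1 mM IBMX (PDE inhibitor); 30 min, 37 °C. Lyse, add cGMP-d2 + anti-cGMP-cryptate, 1 h RT. Ex 317 / em 665 nm; Delta F converted to cGMP via calibrator standard curve.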
A general note: TR-FRET usually uses a lanthanide donor and a delayed reading to cut background.

Assay [2] has as its target monkey NPR1 (Macaca fascicularis, UniProt A0A7N9DBT9). In words: Cellular cGMP production assay, monkey NPR1 expressing CHO-K1 cells (CisBio HTRF). The assay is classed as cell-based. The conditions noted are these: for Monkey NPR1 Amax (% of ANP): maximum cGMP production as percentage of the maximum cGMP produced with ANP. In a few lines:
as §1

[3] abbreviates: cGMP production, monkey NPR1 CHO-K1 cells, 30 min at 37° C., 12-point dose-response from 30 μM, read-out: Monkey NPR1 AC50.

monkey NPR1, sequence (A0A7N9DBT9 entry or part of it): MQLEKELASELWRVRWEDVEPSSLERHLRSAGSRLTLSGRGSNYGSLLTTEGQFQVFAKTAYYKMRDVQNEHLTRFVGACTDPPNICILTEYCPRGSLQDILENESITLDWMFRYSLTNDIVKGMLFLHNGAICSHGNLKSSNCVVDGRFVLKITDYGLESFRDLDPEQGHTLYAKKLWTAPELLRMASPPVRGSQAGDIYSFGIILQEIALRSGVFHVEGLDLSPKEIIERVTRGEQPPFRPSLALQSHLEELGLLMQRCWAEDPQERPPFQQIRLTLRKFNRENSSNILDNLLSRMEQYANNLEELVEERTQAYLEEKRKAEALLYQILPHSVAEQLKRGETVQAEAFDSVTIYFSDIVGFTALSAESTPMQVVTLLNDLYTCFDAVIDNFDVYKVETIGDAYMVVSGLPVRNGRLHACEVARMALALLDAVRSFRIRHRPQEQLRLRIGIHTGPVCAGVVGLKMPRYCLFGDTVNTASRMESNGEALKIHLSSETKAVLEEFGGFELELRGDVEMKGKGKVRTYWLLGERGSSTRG

Turning to `CC[C@@H](Nc1nc2c(c(N[C@@H](CN3CCCC(F)(F)CC3)c3cnn(CC)c3)n1)C[C@H](c1ccccc1)CC2)[C@H]1CC[C@H](C(=O)O)CC1` [Compound 137, (1R,4r)-4-((R)-1-(((R)-4-(((R)-2-(4,4-difluoroazepan-1-yl)-1-(1-ethyl-1H-pyrazol-4-yl)ethyl)amino)-6-phenyl-5,6,7,8-tetrahydroquinazolin-2-yl)amino)propyl)cyclohexane-1-carboxylic acid], in assay [1], the activity was half-maximal at 840 nM (AC50) and the “Human NPR1 Amax (% of ANP)” value is listed as 95.603 % of ANP. For the same compound, the AC50 in assay [2] (setting [3]) came to 379 nM. Also, the “Monkey NPR1 Amax (% of ANP)” value in assay [2] (monkey NPR1 CHO-K1 cells) is 99.351 % of ANP.
Consider `CC[C@H]([C@H]1CC[C@H](C(=O)O)CC1)N(C)c1nc2c(c(N[C@@H](CN3C[C@H]4C[C@@H](C3)C4O)c3cnn(C)c3)n1)C[C@H](c1ccccc1)CC2` (stereo partly drawn) [Compound 138, (1R,4r)-4-((1R)-1-(((6R)-4-(((1R)-2-((1R,5S)-6-hydroxy-3-azabicyclo[3.1.1]heptan-3-yl)-1-(1-methyl-1H-pyrazol-4-yl)ethyl)amino)-6-phenyl-5,6,7,8-tetrahydroquinazolin-2-yl)(methyl)amino)propyl)cyclohexane-1-carboxylic acid], for which, in assay [1], the half-maximal activity concentration (AC50) was 852 nM and the “Human NPR1 Amax (% of ANP)” value is given as 105.993 % of ANP. This compound came in with a concentration at half-maximal activity (AC50) in assay [2] of 734 nM. Besides, in assay [2] (monkey NPR1 CHO-K1 cells), the “Monkey NPR1 Amax (% of ANP)” value is 101.929 % of ANP.
On to `O=C(O)[C@H]1CC[C@H](C(CC2CC2)Nc2nc3c(c(N[C@@H](CN4CCCC4)c4ccccc4)n2)CC(c2ccccc2)CC3)CC1` (stereo partly drawn) [Compound 139, (1R,4r)-4-((1R)-2-cyclopropyl-1-((6-phenyl-4-(((R)-1-phenyl-2-(pyrrolidin-1-yl)ethyl)amino)-5,6,7,8-tetrahydroquinazolin-2-yl)amino)ethyl)cyclohexane-1-carboxylic acid], for which, in assay [1], the concentration at half-maximal activity (AC50) was found to be 876 nM and the “Human NPR1 Amax (% of ANP)” value is on record as 105.089 % of ANP. Moreover, the AC50 in assay [2] (setting [3]) stood at 696 nM. In addition, in assay [2] (monkey NPR1 CHO-K1 cells), the “Monkey NPR1 Amax (% of ANP)” value is 111.911 % of ANP.
`CC[C@@H](N(C)c1nc2c(c(N[C@@H](CN3CCC[C@H](C)C3)c3cc(C)nn3C)n1)C[C@H](c1ccccc1)CC2)C12CC(C(=O)O)(C1)C2` [Compound 140, 3-(1-(((R)-4-(((S)-1-(1,3-dimethyl-1H-pyrazol-5-yl)-2-((S)-3-methylpiperidin-1-yl)ethyl)amino)-6-phenyl-5,6,7,8-tetrahydroquinazolin-2-yl)(methyl)amino)-1l3-propyl)bicyclo[1.1.1]pentane-1-carboxylic acid]: in assay [1], the AC50 was 885 nM and the “Human NPR1 Amax (% of ANP)” value is given as 89.152 % of ANP. In addition, the AC50 in assay [2] (setting [3]) worked out at 499 nM. Besides, the “Monkey NPR1 Amax (% of ANP)” value in assay [2] (monkey NPR1 CHO-K1 cells) is listed as 96.883 % of ANP.
The like results for `CC[C@H]([C@H]1CC[C@H](C(=O)O)CC1)N(C)c1nc2c(c(N[C@@H](CN3CCC[C@H](C)C3)c3cnn(C)c3)n1)C[C@@H](c1ccccc1F)CC2` [Compound 141, (1R,4r)-4-((R)-1-(((S)-6-(2-fluorophenyl)-4-(((R)-1-(1-methyl-1H-pyrazol-4-yl)-2-((S)-3-methylpiperidin-1-yl)ethyl)amino)-5,6,7,8-tetrahydroquinazolin-2-yl)(methyl)amino)propyl)cyclohexane-1-carboxylic acid] were, in that order, 888 nM, 102.728 % of ANP, 731 nM and 105.798 % of ANP.
The like results for `CC[C@@H](Nc1nc2c(c(N[C@@H](CN3CCC(F)CC3)c3cnn(C)c3)n1)C[C@H](c1ccccc1)CC2)[C@H]1CC[C@H](C(=O)O)CC1` [Compound 142, (1R,4r)-4-((R)-1-(((R)-4-(((R)-2-(4-fluoropiperidin-1-yl)-1-(1-methyl-1H-pyrazol-4-yl)ethyl)amino)-6-phenyl-5,6,7,8-tetrahydroquinazolin-2-yl)amino)propyl)cyclohexane-1-carboxylic acid] were, in that order, 901 nM, 107.815 % of ANP, 313 nM and 95.614 % of ANP.
As for `CC[C@H]([C@H]1CC[C@H](C(=O)O)CC1)N(C)c1nc2c(c(N[C@@H](CN3C4CCCC3CCC4)c3cnn(C)c3)n1)C[C@H](c1ccccc1)CC2` [Compound 143, (1R,4r)-4-((R)-1-(((R)-4-(((R)-2-((1S,5S)-9-azabicyclo[3.3.1]nonan-9-yl)-1-(1-methyl-1H-pyrazol-4-yl)ethyl)amino)-6-phenyl-5,6,7,8-tetrahydroquinazolin-2-yl)(methyl)amino)propyl)cyclohexane-1-carboxylic acid], in assay [1], the half-maximal activity concentration (AC50) stood at 920 nM and the “Human NPR1 Amax (% of ANP)” value was 104.085 % of ANP. The compound also came in with a concentration at half-maximal activity (AC50) in assay [2] of 694 nM. In assay [2] (monkey NPR1 CHO-K1 cells), the “Monkey NPR1 Amax (% of ANP)” value is 100.784 % of ANP.
For `CC[C@H]([C@H]1CC[C@H](C(=O)O)CC1)N(C)c1nc2c(c(N[C@@H](CN3CCCC(C)(F)C3)c3cnn(C)c3)n1)C[C@H](c1ccccc1)CC2` (stereo partly drawn) [Compound 144, (1R,4r)-4-((1R)-1-(((6R)-4-(((1R)-2-(3-fluoro-3-methylpiperidin-1-yl)-1-(1-methyl-1H-pyrazol-4-yl)ethyl)amino)-6-phenyl-5,6,7,8-tetrahydroquinazolin-2-yl)(methyl)amino)propyl)cyclohexane-1-carboxylic acid], in assay [1], the activity was half-maximal at 985 nM (AC50) and the “Human NPR1 Amax (% of ANP)” value was 114.314 % of ANP. Also, the AC50 in assay [2] (setting [3]) was found to be 873 nM. Moreover, the “Monkey NPR1 Amax (% of ANP)” value in assay [2] (monkey NPR1 CHO-K1 cells) is on record as 152.392 % of ANP.
For the compound `CC[C@H]([C@H]1CC[C@H](C(=O)O)CC1)N(C)c1nc2c(c(N[C@@H](CN3CCC(C)CC3)c3cnn(C)c3)n1)C[C@H](c1ccccc1)CC2` [Compound 145, (1R,4r)-4-((R)-1-(methyl((R)-4-(((R)-1-(1-methyl-1H-pyrazol-4-yl)-2-(4-methylpiperidin-1-yl)ethyl)amino)-6-phenyl-5,6,7,8-tetrahydroquinazolin-2-yl)amino)propyl)cyclohexane-1-carboxylic acid], in assay [1], the AC50 came to 1050 nM and the “Human NPR1 Amax (% of ANP)” value is 97.636 % of ANP. In addition, in assay [2] (setting [3]), the AC50 is 900 nM. Further, the “Monkey NPR1 Amax (% of ANP)” value in assay [2] (monkey NPR1 CHO-K1 cells) was 103.150 % of ANP.
The like results for `CC[C@H]([C@H]1CC[C@H](C(=O)O)CC1)N(C)c1nc2c(c(N[C@@H](CN3CCCC3)c3ccccc3)n1)C[C@H](c1ccccc1)CC2` [Compound 146, (1R,4r)-4-((R)-1-(methyl((R)-6-phenyl-4-(((R)-1-phenyl-2-(pyrrolidin-1-yl)ethyl)amino)-5,6,7,8-tetrahydroquinazolin-2-yl)amino)propyl)cyclohexane-1-carboxylic acid] were, in that order, 1070 nM, 104.657 % of ANP, 702 nM and 96.864 % of ANP.
For `CC[C@H]([C@H]1CC[C@H](C(=O)O)CC1)N(C)c1nc2c(c(N[C@@H](CN3CCCCC3)c3cnn(CC4CC4)c3)n1)C[C@H](c1ccccc1)CC2` [Compound 147, (1R,4r)-4-((R)-1-(((R)-4-(((R)-1-(1-(cyclopropylmethyl)-1H-pyrazol-4-yl)-2-(piperidin-1-yl)ethyl)amino)-6-phenyl-5,6,7,8-tetrahydroquinazolin-2-yl)(methyl)amino)propyl)cyclohexane-1-carboxylic acid] the same measures were 1080 nM, 97.612 % of ANP, 671 nM and 101.537 % of ANP.
For `CC[C@H]([C@H]1CC[C@H](C(=O)O)CC1)N(C)c1nc2c(c(N[C@@H](CN3CCCCC3)c3ccc(=O)n(CC)c3)n1)C[C@H](c1ccccc1)CC2` [Compound 148, (1R,4r)-4-((R)-1-(((R)-4-(((R)-1-(1-ethyl-6-oxo-1,6-dihydropyridin-3-yl)-2-(piperidin-1-yl)ethyl)amino)-6-phenyl-5,6,7,8-tetrahydroquinazolin-2-yl)(methyl)amino)propyl)cyclohexane-1-carboxylic acid] the same measures were 1080 nM, 93.518 % of ANP, 834 nM and 102.851 % of ANP.

By AC50 is commonly meant the concentration giving half of the maximal activity seen.

For the origin of these results see patent US12129246B1, “Hydroquinazoline derivatives for the treatment of a disease or disorder” (Novartis AG, priority 2023, dated 2024).
